assay: in vitro; details: human, hela cells, % viability

SMILES | viability at 28.5 h, 10 µM [%]
Cc1cc2nc(-c3ccccc3)[nH]c2cc1C [CBK086484] | 80.1
OCCCNC(=S)Nc1ccc(Br)cc1Cl [CBK086487] | 82.3
CC1=CCC2C(=O)N(c3ccccc3)C(=O)C2C1 (stereo not shown) [CBK086490] | 84.1
O=C1COCC(=O)N1c1ccc(I)cc1 [CBK086499] | 87.5
CC(C)(CC(=O)O)CC(=O)Nc1ccc(Cl)c(Cl)c1 [CBK086500] | 92.6
Cc1onc(-c2c(Cl)cccc2Cl)c1N(C)C(=O)N1CCCCC1 [CBK086555] | 109
CC(C)(C)OC(=O)NC1CCN(C(=O)Nc2ccc(OCc3ccccc3)cc2)CC1 [CBK086602] | 98.4
O=C1NC2(CCNCC2)Oc2ccc(-c3cccnc3)cc21 [CBK086611] | 95.4
CCOC(=O)c1cnc(SC)nc1NCCc1c[nH]cn1 [CBK086623] | 92.6
O=C(NCc1ccccc1)c1ccco1 [CBK086713] | 118
Cc1cc(OCC(O)CN(Cc2ccccc2)C(C)(C)C)ccc1[N+](=O)[O-] (stereo not shown) [CBK086757] | 99.6
Cc1ccccc1C(=O)Nc1ccc(S(=O)(=O)Nc2nccs2)cc1 [CBK086797] | 89.4
O=C(COc1cccc2ccccc12)N/N=C/c1ccco1 [CBK086853] | 103
CC(C)(C)c1nnc(NC(=O)c2ccc(F)cc2)s1 [CBK086855] | 89
COc1cc2c(cc1OC)/C(=C(\C(=O)Nc1ccccc1)C(=O)N1CCCCC1)NC(C)(C)C2 [CBK087103] | 94.5
Cc1cc(C)n(-c2nc3c(c(=O)[nH]c(=O)n3C)n2CCc2ccccc2)n1 [CBK087129] | 90.2
O=C(O)CCNc1ccc(Br)cc1C(=O)O [CBK087259] | 96.9
Nc1nc2ccccc2n1CCOc1ccc(Cl)cc1 [CBK087352] | 85.9
COc1cccc(N2CCC(=O)N2)c1 [CBK087441] | 87
O=C1CC(c2ccc3c(c2)OCO3)c2ccc3ccccc3c2N1 (stereo not shown) [CBK087469] | 95.8
Cc1c(Br)c(C(F)(F)F)nn1CC(=O)Nc1cc(C(F)(F)F)ccc1Cl [CBK087518] | 92.5
Cc1ccc(S(=O)(=O)Nc2ccccc2-c2nc3ccccc3c(=O)o2)cc1 [CBK087613] | 94.5
O=C(O)CCC(NC(=O)c1ccc(I)cc1)C(=O)O (stereo not shown) [CBK087614] | 95.8
Cc1c(C)n(Cc2ccccc2)c2ccc(C(=O)OCCCN(C)C)cc12 [CBK087693] | 91.7

SMILES | viability at 28.5 h, 10 µM [%]
CCC(=O)NCCc1c[nH]c2ccc([N+](=O)[O-])cc12 [CBK088059] | 110
Cc1c(NC(=O)c2ccccc2Cl)c(=O)n(-c2ccccc2)n1C [CBK088068] | 105
O=c1[nH]c2ccccc2nc1-c1cc(Br)ccc1NCc1ccccc1 [CBK088071] | 106
CC(C)Nc1nccnc1-c1ccc(CO)cc1 [CBK088519] | 90.1
c1ccc(-c2nccnc2NCC2CC2)cc1 [CBK088539] | 88.4
COCCNc1nccnc1-c1ccccc1 [CBK088555] | 105
COCCNc1nccnc1-c1cnc(OC)nc1OC [CBK088558] | 109
CCNc1nccnc1-c1cnc(OC)nc1OC [CBK088587] | 93.9
CCNc1nccnc1-c1cccc(O)c1 [CBK088593] | 103
COc1ccccc1-c1nccnc1NCc1cccs1 [CBK088682] | 88
OCc1ccc(-c2nccnc2NCc2cccs2)cc1 [CBK088689] | 99.1
C[C@H](Nc1nccnc1-c1ccsc1)c1ccccc1 [CBK088716] | 94.9
CC(C)CNc1nccnc1-c1ccc2c(c1)OCO2 [CBK088730] | 98.4
CC(C)CNc1nccnc1-c1ccc(Cl)cc1 [CBK088738] | 91.3
Nc1nn2c(c1Cc1c(Cl)cccc1Cl)OCC2 [CBK088759] | 91.7
CN1CCN(c2nccnc2-c2ccccc2)CC1 [CBK088825] | 88.7
CCCNc1nccnc1-c1cccc(Cl)c1Cl [CBK088892] | 93.8
CCCNc1nccnc1-c1cccc(CO)c1 [CBK088897] | 91.5
Nc1c(Cc2c(Cl)cccc2Cl)c(=O)n2n1CCC2 [CBK088948] | 98.9
Fc1ccc(-c2nccnc2NCc2ccncc2)cc1 [CBK088964] | 98.8
COc1ccccc1-c1nccnc1NCCCO [CBK088971] | 98.8
OCCCNc1nccnc1-c1cccc(F)c1 [CBK088976] | 98.5
CC(C)[C@@H](CO)Nc1nccnc1-c1cccs1 [CBK089024] | 93.7
COc1ccccc1-c1nccnc1N[C@@H](CO)C(C)C [CBK089034] | 93.6

SMILES | viability at 28.5 h, 10 µM [%]
OCC1CCCN1c1nccnc1-c1ccoc1 (stereo not shown) [CBK089057] | 105
OCC1CCCN1c1nccnc1-c1cccs1 (stereo not shown) [CBK089060] | 106
CC(O)CNc1nccnc1-c1ccccc1 (stereo not shown) [CBK089257] | 95.7
c1cncc(CNc2nccnc2-c2ccsc2)c1 [CBK089314] | 113
Nc1c(Cc2c(Cl)cccc2Cl)c(=O)n2n1CCCC2 [CBK089337] | 95
CCC1CCCCN1C(=O)c1cc(C)oc1C (stereo not shown) [CBK089358] | 105
O=C(N1CCOCC1)C12CC3CC(CC(C3)C1)C2 [CBK089368] | 90.3
CC(C)Nc1nccnc1Sc1cccs1 [CBK089490] | 123
CC(C)Nc1cc(Sc2ccc(Br)cc2)ncn1 [CBK089502] | 103
Nc1ccc(Sc2nccnc2N2CCCC2)cc1 [CBK089520] | 94.4
COc1cccc(Sc2cc(N3CCCC3)ncn2)c1 [CBK089533] | 110
c1ccc2c(Sc3cc(N4CCCC4)ncn3)cccc2c1 [CBK089538] | 94.2
Fc1ccc(Sc2nc3ccccc3nc2N2CCCC2)cc1 [CBK089543] | 101
CC(C)(C)OCc1[nH]nc(O)c1Cc1c(Cl)cccc1Cl [CBK089569] | 106
CCCNCC(=O)N1CN(C(=O)c2ccc(C)cc2)C(C)(C)C1 [CBK089572C] | 111
Cc1ccc(C(=O)N2CN(C(=O)CNC3CC3)CC2(C)C)cc1 [CBK089574C] | 98.4
Nc1cccc(Sc2ccc(C(F)(F)F)cn2)c1 [CBK089606] | 107
FC(F)(F)c1cccc(Sc2ccc(Cl)c(Cl)c2)n1 [CBK089608] | 91.2
CCNc1cc2ccccc2c(-c2ccc(OC)c(C)c2)n1 [CBK089644] | 86
CCc1nccnc1OC [CBK089673] | 101
OCCNc1nccnc1Cl [CBK089793] | 114
CC(C)(C)S(=O)(=O)Cc1noc(-c2ccc(Cl)nc2)n1 [CBK089825] | 98.9

same assay, conditions: human, hela cells, % viability, bulk resorufin, single well

SMILES | viability at 28.5 h, 10 µM [%]
CNC(=O)c1nn(Cc2ccc(Cl)cc2)c2ccccc12 [CBK088451] | 87.6
O=C(O)c1nn(Cc2ccc(Cl)c(Cl)c2)c2ccccc12 [CBK088455] | 91.2
CCOC(=O)N1CCC2(CC1)Oc1ccc(Br)cc1O2 [CBK089365] | 80.9

Reference: publication PMC12040169 (PLOS Biology, 2025)
